Source: patent US12466809B2, “CDK2/5 degraders and uses thereof” (DANA-FARBER CANCER INSTITUTE, INC., priority 2019, dated 2025)

Key:
CDK2/Cyclin A = CDK2/Cyclin A (Homo sapiens (Human), UniProt P24941); experiment: Invitrogen Z'-LYTE kinase assay CDK2/Cyclin A (assay ID 315, Km app, 10-point titration); assay type: biochemical; settings: Km app ATP
Source text: (§1) CDK2 and CDK5 IC50 data were attained through the use of Invitrogen™ commercial assays. The method for CDK2 (assay ID: 315, kinase|Z'-LYTE™|CDK2/Cyclin A|Km app) used a 10-point titration. The method for CDK5 (assay ID: 318, kinase|Z'-LYTE™|CDK5/p25|Km app) used a 10-point titration.

CDK5/p25 = CDK5/p25 (Homo sapiens (Human), UniProt Q00535); experiment: Invitrogen Z'-LYTE kinase assay CDK5/p25 (assay ID 318, Km app, 10-point titration); assay type: biochemical; settings: CDK5/p25, Km app ATP
Source text: as §1

CDK2 = CDK2 (Homo sapiens (Human), UniProt P24941); experiment: Knockdown of CDK2/5 in OVCAR8 cells, immunoblot: CDK2; assay type: cell-based; settings: various concentrations, 6 hours
CDK5 = CDK5 (Homo sapiens (Human), UniProt Q00535); experiment: Knockdown of CDK2/5 in OVCAR8 cells, immunoblot: CDK5; assay type: cell-based; settings: various concentrations, 6 hours
CDK9 = CDK9 (Homo sapiens (Human), UniProt P50750); experiment: Knockdown of CDKs in Jurkat cells, immunoblot: CDK9; assay type: cell-based; settings: 0.25 μM, 6 hours
Experimental: Jurkat acute T cell leukemia cells were treated with 0, 0.1 μM, 1 μM, and 10 μM of compounds 1-7 or 0.25 μM THAL-SNS-032 (a known CDK9 degrader, as a positive control for CDK9 degradation) for 6 hours, and then lysed and immunoblotted with antibodies to CDK1, CDK2, CDK5, CDK7, CDK9, CDK12, CDK13 and R-Actin (FIG. 1A-FIG. 2B).

Sequence of CDK5/p25 (Q00535 whole entry): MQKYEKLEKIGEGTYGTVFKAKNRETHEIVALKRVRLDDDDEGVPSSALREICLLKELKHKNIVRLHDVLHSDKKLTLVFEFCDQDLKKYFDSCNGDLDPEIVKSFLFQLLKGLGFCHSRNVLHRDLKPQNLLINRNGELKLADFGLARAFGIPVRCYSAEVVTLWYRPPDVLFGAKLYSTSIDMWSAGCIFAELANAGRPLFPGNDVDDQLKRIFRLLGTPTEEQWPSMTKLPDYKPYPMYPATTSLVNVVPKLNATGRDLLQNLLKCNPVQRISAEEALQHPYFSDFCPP
Sequence of CDK5/p25 (Q15078 99-307 partner): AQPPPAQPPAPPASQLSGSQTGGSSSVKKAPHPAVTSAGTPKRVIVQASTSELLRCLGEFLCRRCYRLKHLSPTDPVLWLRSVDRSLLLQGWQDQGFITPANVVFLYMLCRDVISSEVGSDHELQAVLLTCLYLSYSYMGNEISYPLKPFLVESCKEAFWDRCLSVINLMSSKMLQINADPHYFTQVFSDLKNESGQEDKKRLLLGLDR
Sequence of CDK9 (P50750 whole entry): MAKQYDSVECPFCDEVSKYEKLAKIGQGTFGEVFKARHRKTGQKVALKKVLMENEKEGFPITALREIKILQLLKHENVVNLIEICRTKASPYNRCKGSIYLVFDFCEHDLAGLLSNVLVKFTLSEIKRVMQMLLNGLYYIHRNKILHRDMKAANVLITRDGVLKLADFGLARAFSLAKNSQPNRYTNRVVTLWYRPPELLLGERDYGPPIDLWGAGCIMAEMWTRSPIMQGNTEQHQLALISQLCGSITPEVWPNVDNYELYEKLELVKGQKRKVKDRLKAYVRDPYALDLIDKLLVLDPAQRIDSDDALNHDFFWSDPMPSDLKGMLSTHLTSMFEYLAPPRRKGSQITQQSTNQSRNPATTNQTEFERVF
Sequence of CDK5 (Q00535 whole entry): as the sequence (Q00535 whole entry) above

Compound	IC50 (CDK2/Cyclin A) [nM]	IC50 (CDK5/p25) [nM]	knockdown of CDK2 (CDK2)	knockdown of CDK5 (CDK5)	CDK9 degradation (CDK9)
NC(=O)c1c(F)cccc1Nc1nc(NC2CCN(S(=O)(=O)CCNC(=O)CCCCCCCCOc3cccc4c3C(=O)N(C3CCC(=O)NC3=O)C4=O)CC2)ncc1Br (stereo not drawn) [Compound 5, 2-((5-bromo-2-((1-((2-(9-((2-(2,6-dioxopiperidin-3-yl)-1,3-dioxoisoindolin-4-yl)oxy)nonanamido)ethyl)sulfonyl)piperidin-4-yl)amino)pyrimidin-4-yl)amino)-6-fluorobenzamide]	28.7	16.1	selective knockdown	selective knockdown	
O=C(CCOCCOCCOCCOCCNc1cccc2c1C(=O)N(C1CCC(=O)NC1=O)C2=O)NCCS(=O)(=O)N1CCC(Nc2ncc(Br)c(Nc3cccc4c3C(=O)NC4)n2)CC1 (stereo not drawn) [Compound 20, N-(2-((4-((5-bromo-4-((3-oxoisoindolin-4-yl)amino)pyrimidin-2-yl)amino)piperidin-1-yl)sulfonyl)ethyl)-1-((2-(2,6-dioxopiperidin-3-yl)-1,3-dioxoisoindolin-4-yl)amino)-3,6,9,12-tetraoxapentadecan-15-amide]	4.7	5.8			
O=C(CCCCCCCCOc1cccc2c1C(=O)N(C1CCC(=O)NC1=O)C2=O)NCCS(=O)(=O)N1CCC(Nc2ncc(Br)c(Nc3cccc4c3C(=O)NC4)n2)CC1 (stereo not drawn) [Compound 21, N-(2-((4-((5-bromo-4-((3-oxoisoindolin-4-yl)amino)pyrimidin-2-yl)amino)piperidin-1-yl)sulfonyl)ethyl)-9-((2-(2,6-dioxopiperidin-3-yl)-1,3-dioxoisoindolin-4-yl)oxy)nonanamide]	10.5	7.6			
Cn1ncc(Nc2nc(NC3CCN(S(=O)(=O)CCNC(=O)CCCCCCCCOc4cccc5c4C(=O)N(C4CCC(=O)NC4=O)C5=O)CC3)ncc2Br)c1C(N)=O (stereo not drawn) [Compound 22, 4-((5-bromo-2-((1-((2-(9-((2-(2,6-dioxopiperidin-3-yl)-1,3-dioxoisoindolin-4-yl)oxy)nonanamido)ethyl)sulfonyl)piperidin-4-yl)amino)pyrimidin-4-yl)amino)-1-methyl-1H-pyrazole-5-carboxamide]	5.7	5.7			
NC(=O)c1c(F)cccc1Nc1nc(Nc2ccc(S(=O)(=O)NCCOCCOCCOCCOCCNc3cccc4c3C(=O)N(C3CCC(=O)NC3=O)C4=O)cc2)ncc1Br (stereo not drawn) [Compound 23, 2-((5-bromo-2-((4-(N-(14-((2-(2,6-dioxopiperidin-3-yl)-1,3-dioxoisoindolin-4-yl)amino)-3,6,9,12-tetraoxatetradecyl)sulfamoyl)phenyl)amino)pyrimidin-4-yl)amino)-6-fluorobenzamide]	10.9	7			
Cc1cc(Nc2ncc(Br)c(Nc3cccc(F)c3C(N)=O)n2)ccc1S(=O)(=O)NCCOCCOCCOCCOCCNc1cccc2c1C(=O)N(C1CCC(=O)NC1=O)C2=O (stereo not drawn) [Compound 25, 2-((5-bromo-2-((4-(N-(14-((2-(2,6-dioxopiperidin-3-yl)-1,3-dioxoisoindolin-4-yl)amino)-3,6,9,12-tetraoxatetradecyl)sulfamoyl)-3-methylphenyl)amino)pyrimidin-4-yl)amino)-6-fluorobenzamide]	8.1	7.1			
Cc1cc(S(=O)(=O)NCCOCCOCCOCCOCCNC(=O)COc2cccc3c2C(=O)N(C2CCC(=O)NC2=O)C3=O)ccc1Nc1ncc(Br)c(Nc2cccc(F)c2C(N)=O)n1 (stereo not drawn) [Compound 46, 2-((5-bromo-2-((4-(N-(1-((2-(2,6-dioxopiperidin-3-yl)-1,3-dioxoisoindolin-4-yl)oxy)-2-oxo-6,9,12,15-tetraoxa-3-azaheptadecan-17-yl)sulfamoyl)-2-methylphenyl)amino)pyrimidin-4-yl)amino)-6-fluorobenzamide]	1.7	1.4			
Cc1cc(S(=O)(=O)NCCCCCCCCCCNC(=O)COc2cccc3c2C(=O)N(C2CCC(=O)NC2=O)C3=O)ccc1Nc1ncc(Br)c(Nc2cccc(F)c2C(N)=O)n1 (stereo not drawn) [Compound 47, 2-((5-bromo-2-((4-(N-(10-(2-((2-(2,6-dioxopiperidin-3-yl)-1,3-dioxoisoindolin-4-yl)oxy)acetamido)decyl)sulfamoyl)-2-methylphenyl)amino)pyrimidin-4-yl)amino)-6-fluorobenzamide]	19.4	18.2			
Cc1cc(S(=O)(=O)NCCCCN2CCN(C(=O)COc3cccc4c3C(=O)N(C3CCC(=O)NC3=O)C4=O)CC2)ccc1Nc1ncc(Br)c(Nc2cccc(F)c2C(N)=O)n1 (stereo not drawn) [Compound 48, 2-((5-bromo-2-((4-(N-(4-(4-(2-((2-(2,6-dioxopiperidin-3-yl)-1,3-dioxoisoindolin-4-yl)oxy)acetyl)piperazin-1-yl)butyl)sulfamoyl)-2-methylphenyl)amino)pyrimidin-4-yl)amino)-6-fluorobenzamide]	2	2.9			
CC(C)(C)c1cnc(CSc2cnc(NC(=O)C3CCN(CC(=O)NCCOCCOCCOCCNc4cccc5c4C(=O)N(C4CCC(=O)NC4=O)C5=O)CC3)s2)o1 (stereo not drawn) [THAL-SNS-032]					induced CDK9 degradation
